These results are taken from PubChem BioAssay (NCI).

Among the test systems are EKVX NSCLC; HCT-15 colon; HT29 colon; K-562 leukemia; MOLT-4 leukemia; NCI-H23 lung; SK-MEL-5 melanoma; SN12C renal; BT-549 breast; PC-3 prostate.
Experiment in all cases: growth of human tumour cells (NCI), 48 h

Several values for one entry are separate records, joined by “and”; a condition that tells them apart may be missing. Identical values can stand only once.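 Protocol summary: plate cells (96-well), add compound at 5 concentrations, incubate 48 h, interpolate endpoints linearly. Here, GI50 denotes the concentration required for 50% inhibition of growth. TGI denotes the concentration required for complete inhibition of growth.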 Bounds are passed on as bounds.

Regarding `CC(=O)OC12C(C)=C(C)C(=O)N1c1ccccc1N2C(C)=O` (centres undefined), the TGI in the assay with EKVX NSCLC, with HCT-15 colon, in the assay on HT29 colon, in the assay with K-562 leukemia, in the assay on MOLT-4 leukemia and in the assay on NCI-H23 lung was > 100 µM in each case. The TGI with SK-MEL-5 melanoma was > 100 µM.

For the molecule `COc1ccc(CC(=O)NCCc2ccc(OC)c(OC)c2OC)cc1`, the TGI in the assay on EKVX NSCLC, in the assay on HT29 colon, with K-562 leukemia, in the assay with MOLT-4 leukemia, with NCI-H23 lung and in the assay on SK-MEL-5 melanoma was > 100 µM throughout. Further, the TGI in the assay with SN12C renal was > 100 µM.

For the molecule `O=C1c2ccccc2-c2c3c(cc4ccnc1c24)OCO3`, the TGI with EKVX NSCLC was 11.7 µM and 35.7 µM; in the assay on HCT-15 colon it was 68.3 µM and > 100 µM; with HT29 colon it was > 100 µM and 78 µM; with K-562 leukemia, > 100 µM and 15 µM; with MOLT-4 leukemia, 15.6 µM and > 100 µM; with NCI-H23 lung, 25.9 µM and 17.4 µM. The figures for the TGI with SK-MEL-5 melanoma and in the assay on SN12C renal were 8.66 µM and > 100 µM, respectively.

On to `CC(Oc1ccc2c(-c3ccc(Cl)cc3)cc(=O)oc2c1)C(=O)O` (centres undefined), for which the TGI with EKVX NSCLC, in the assay with HT29 colon, in the assay on K-562 leukemia, in the assay on MOLT-4 leukemia, in the assay on NCI-H23 lung and in the assay with SK-MEL-5 melanoma was > 100 µM throughout. The TGI in the assay on SN12C renal was > 100 µM.

As to `CC(C)(C)C(=O)N1C(C(=O)O)Cc2ccccc2[C@@H]1Cc1ccccc1` (some centres undefined), the TGI with EKVX NSCLC, with HCT-15 colon, in the assay on HT29 colon, in the assay on K-562 leukemia, in the assay on MOLT-4 leukemia and in the assay with NCI-H23 lung was > 100 µM throughout. The TGI in the assay with SK-MEL-5 melanoma and in the assay on SN12C renal was > 100 µM each time.

On to `Nc1ncc(-c2ccc3ncnc(Nc4cccc(Cl)c4)c3c2)cn1`, for which the GI50 in the assay with BT-549 breast was 0.262 µM; in the assay on HCT-15 colon it was 0.217 µM and 1.57 µM; with HT29 colon it was 1.75 µM; in the assay on PC-3 prostate, 1.48 µM; in the assay on SK-MEL-5 melanoma it was 2.31 µM; in the assay on SN12C renal, 1.82 µM. The TGI in the assay with HCT-15 colon, in the assay on HT29 colon, in the assay with PC-3 prostate, in the assay on SK-MEL-5 melanoma and in the assay on SN12C renal was > 100 µM in each case.

As to `C=CCC1(C(=O)OC)CCC/C(=N\O)C1` (centres undefined), the TGI with BT-549 breast, in the assay on HCT-15 colon, with HT29 colon, in the assay on K-562 leukemia, in the assay with MOLT-4 leukemia and with NCI-H23 lung was > 10 µM in each case. The TGI with PC-3 prostate, in the assay on SK-MEL-5 melanoma and with SN12C renal was > 10 µM each time.

Regarding `CCN(CC)CCN(CC)CC.CCN(CC)CCN(CC)CC.[Cu+2].[Cu+2].[O-][Cl+3]([O-])([O-])[O-].[OH3+].[OH3+]`, the GI50 with HT29 colon is 25.6 µM; in the assay on K-562 leukemia, 53.1 µM; in the assay on MOLT-4 leukemia, 91.4 µM; in the assay with NCI-H23 lung, 31.1 µM; with SK-MEL-5 melanoma, 15.6 µM; with SN12C renal it was 90.7 µM. The TGI in the assay with HT29 colon was 87.9 µM; with K-562 leukemia it was > 100 µM; with MOLT-4 leukemia it was > 100 µM; with NCI-H23 lung, 77.8 µM; in the assay on SK-MEL-5 melanoma, 29.5 µM; in the assay on SN12C renal, > 100 µM.

As to `O=[N+]([O-])c1nccn1CC(O)c1ccccc1` (centres undefined), the TGI in the assay with EKVX NSCLC, in the assay on HCT-15 colon, in the assay with HT29 colon, in the assay on K-562 leukemia, in the assay on MOLT-4 leukemia and in the assay with NCI-H23 lung was > 100 µM in each case. In addition, the TGI in the assay on SK-MEL-5 melanoma and in the assay on SN12C renal was > 100 µM each time.

In the case of `CCOC(=O)C1(C(=O)OCC)C(C(C)(C)C)=C(C)c2ccccc21`, the TGI is 56.2 µM with EKVX NSCLC; 28.7 µM with HCT-15 colon; 23.8 µM in the assay with HT29 colon; 53.5 µM with K-562 leukemia; > 100 µM in the assay on MOLT-4 leukemia; 30.4 µM in the assay with NCI-H23 lung. Also, the TGI with SK-MEL-5 melanoma turned out to be 21.8 µM; in the assay on SN12C renal, 28.7 µM.

Take `CC(C)(C)C1=CC(=N/N=c2\scc(-c3ccccc3)n2-c2ccccc2)C=C(C(C)(C)C)C1=O`: the TGI with EKVX NSCLC, with HCT-15 colon, with HT29 colon, with K-562 leukemia, with MOLT-4 leukemia and in the assay with NCI-H23 lung was > 100 µM throughout. Moreover, the TGI in the assay on SK-MEL-5 melanoma and in the assay on SN12C renal was > 100 µM throughout.

Take `COc1ccc(/C=C/c2cc(OC)c(OC(C)=O)c(OC)c2)cc1`: the TGI in the assay on EKVX NSCLC was > 100 µM; in the assay with HCT-15 colon it was 80.6 µM; with HT29 colon it was > 100 µM; with MOLT-4 leukemia, 95.9 µM; with NCI-H23 lung, 61.4 µM; in the assay on SN12C renal it was 75.2 µM.

On to `O=C(CC1(O)C(=O)Nc2c(Cl)cc(Cl)cc21)c1ccccc1` (centres undefined), for which the TGI in the assay with EKVX NSCLC, with HCT-15 colon, in the assay with HT29 colon, with K-562 leukemia, in the assay on MOLT-4 leukemia and in the assay with NCI-H23 lung was > 100 µM each time. Further, the TGI with SK-MEL-5 melanoma and in the assay with SN12C renal was > 100 µM throughout.

For the molecule `O=C(C[n+]1ccccc1)N/N=C(/CCC(=O)N(Cc1ccccc1)Cc1ccccc1)CC(=O)c1ccccc1`, the TGI in the assay on EKVX NSCLC, in the assay on HCT-15 colon, with HT29 colon, in the assay with K-562 leukemia, in the assay with MOLT-4 leukemia and in the assay on NCI-H23 lung was > 100 µM in each case. Also, the TGI with SK-MEL-5 melanoma and in the assay on SN12C renal was > 100 µM in each case.

`NC(=O)c1cc(N2CC2)c([N+](=O)[O-])cc1[N+](=O)[O-]`: the GI50 with EKVX NSCLC, with HT29 colon, in the assay on K-562 leukemia, in the assay on NCI-H23 lung and with SN12C renal was > 200 µM each time. The TGI in the assay on EKVX NSCLC was > 200 µM; in the assay on HCT-15 colon, > 200 µM; with HT29 colon it was > 200 µM; in the assay with K-562 leukemia, > 200 µM; in the assay on MOLT-4 leukemia it was > 63.2 µM; in the assay with NCI-H23 lung it was > 200 µM. Besides, the TGI with PC-3 prostate, with SK-MEL-5 melanoma and in the assay with SN12C renal was > 200 µM throughout.
